This note sets out measurements from ChEMBL document CHEMBL1148595, “Identification of Darmstoff analogs as selective agonists and antagonists of lysophosphatidic acid receptors” (Bioorg Med Chem Lett, 2006).

What is called EC50 is the concentration that produces a half-maximal response. The term Emax denotes the greatest response seen or fitted, relative to the assay's reference. The IC50 is the concentration at which inhibition is half-maximal. Broadly, the residual activity is the share of the control activity or signal that is left under treatment. By Ki is commonly meant a measure of affinity in units of concentration, obtained from inhibition or displacement.

Assay [1] deals with T1, Peroxisome proliferator-activated receptor gamma (Homo sapiens) (UniProt P37231).
T1 sequence (whole entry): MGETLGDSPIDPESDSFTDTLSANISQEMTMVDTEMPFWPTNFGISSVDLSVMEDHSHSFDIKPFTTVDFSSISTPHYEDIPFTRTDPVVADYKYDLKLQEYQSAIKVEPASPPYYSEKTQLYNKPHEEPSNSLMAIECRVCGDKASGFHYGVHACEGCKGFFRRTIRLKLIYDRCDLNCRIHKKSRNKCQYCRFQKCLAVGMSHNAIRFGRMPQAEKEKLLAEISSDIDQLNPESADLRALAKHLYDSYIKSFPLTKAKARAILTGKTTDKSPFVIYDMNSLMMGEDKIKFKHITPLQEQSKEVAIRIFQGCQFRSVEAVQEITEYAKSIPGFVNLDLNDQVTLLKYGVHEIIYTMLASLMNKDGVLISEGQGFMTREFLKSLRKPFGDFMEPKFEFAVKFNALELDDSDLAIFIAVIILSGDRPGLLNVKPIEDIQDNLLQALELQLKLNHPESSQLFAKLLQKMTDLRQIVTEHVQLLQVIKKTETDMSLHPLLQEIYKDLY
In words: PPARgamma activation in CV1 cells. It counts as cell-based. The settings on record: CV-1, filed as agonist.

The target in assay [2] is Lysophosphatidic acid receptor 1 (Rattus norvegicus, UniProt P61794). The experiment in a line: Activity at LPA1 receptor in RH7777 rat hepatoma cell line.
The target in assay [3] is Lysophosphatidic acid receptor 2 (Homo sapiens, UniProt Q9HBW0). In words: Activity at LPA2 receptor in RH7777 rat hepatoma cell line. The format is cell-based.
The target in a further assay is Autotaxin (Homo sapiens, UniProt Q13822). In words: Inhibition of lysophospholipase D autotaxin. The settings on record: for residual activity: values are per cent of control.
Assay [4] has as its target T2, Lysophosphatidic acid receptor 3 (Rattus norvegicus, UniProt Q8K5E0).
T2 sequence (Q8K5E0 whole entry): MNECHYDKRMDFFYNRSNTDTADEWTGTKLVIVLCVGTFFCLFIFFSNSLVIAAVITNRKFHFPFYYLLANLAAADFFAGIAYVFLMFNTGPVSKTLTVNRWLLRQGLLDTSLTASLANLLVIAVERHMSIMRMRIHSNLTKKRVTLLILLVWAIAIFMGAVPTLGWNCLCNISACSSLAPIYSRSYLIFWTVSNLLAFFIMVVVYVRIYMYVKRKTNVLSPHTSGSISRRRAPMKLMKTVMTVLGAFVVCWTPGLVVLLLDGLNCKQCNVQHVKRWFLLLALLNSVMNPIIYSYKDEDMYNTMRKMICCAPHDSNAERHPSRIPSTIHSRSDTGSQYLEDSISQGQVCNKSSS
The experiment in a line: (§1) Activity at LPA3 receptor in RH7777 rat hepatoma cell line. The format is cell-based.

Assay [5] has as its target T3, Lysophosphatidic acid receptor 3 (Rattus norvegicus) (UniProt Q8K5E0).
T3 sequence (whole entry): T2 sequence (Q8K5E0 whole entry)
The assay is described as §1. The format is cell-based.

Chain of Lysophosphatidic acid receptor 1 (P61794 whole entry): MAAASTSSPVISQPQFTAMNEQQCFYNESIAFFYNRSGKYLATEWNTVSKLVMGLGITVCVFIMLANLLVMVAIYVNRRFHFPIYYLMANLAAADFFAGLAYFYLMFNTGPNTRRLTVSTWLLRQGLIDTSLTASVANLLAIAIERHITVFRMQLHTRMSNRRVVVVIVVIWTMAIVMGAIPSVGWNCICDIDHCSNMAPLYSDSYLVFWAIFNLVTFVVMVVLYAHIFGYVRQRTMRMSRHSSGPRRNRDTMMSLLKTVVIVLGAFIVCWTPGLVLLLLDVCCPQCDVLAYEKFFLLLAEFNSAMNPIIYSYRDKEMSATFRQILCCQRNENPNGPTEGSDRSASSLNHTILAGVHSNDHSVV
Chain of Lysophosphatidic acid receptor 2 (Q9HBW0 whole entry): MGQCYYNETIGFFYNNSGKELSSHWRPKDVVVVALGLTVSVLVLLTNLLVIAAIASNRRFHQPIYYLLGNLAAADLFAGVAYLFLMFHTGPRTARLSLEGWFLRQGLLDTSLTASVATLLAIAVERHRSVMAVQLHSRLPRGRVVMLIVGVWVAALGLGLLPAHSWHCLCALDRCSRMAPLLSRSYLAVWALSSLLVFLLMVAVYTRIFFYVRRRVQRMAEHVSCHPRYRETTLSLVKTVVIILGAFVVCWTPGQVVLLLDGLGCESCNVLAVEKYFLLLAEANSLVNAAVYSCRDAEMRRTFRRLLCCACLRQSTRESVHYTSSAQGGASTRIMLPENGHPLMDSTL

As to `CCCCCCC/C=C/CCCCCCCCC1OCC(COP(O)(O)=S)O1` (stereo unspecified), the Activity entry in assay [1] is “Agonist”. Besides, the 50% effective concentration (EC50) in assay [2] was determined as 981 nM; in assay [3], 1170 nM; in assay [4], 639 nM. Further, the Emax was 87% in assay [3] and 73% in assay [5]. In addition, the IC50 against Autotaxin stood at 415 nM. For the same molecule, the residual activity at Autotaxin worked out at 51%.

`CCCCCCC/C=C/CCCCCCCC[C@@H]1OC[C@H](COP(O)(O)=S)O1`: the Activity entry in assay [1] is “Agonist”. For the same molecule, the half-maximal effective concentration (EC50) in assay [2] turned out to be 1410 nM; in assay [3], 1090 nM; in assay [4], 194 nM. For the same molecule, the Emax in assay [3] worked out at 85%; in assay [5], 113%. This molecule also returned an IC50 against Autotaxin of 344 nM. On Autotaxin, this molecule registered a residual activity of 66%.

As for `CCCCCCC/C=C/CCCCCCCC[C@@H]1OC[C@@H](COP(=O)(O)O)O1`, the Activity entry in assay [1] is “Agonist”. This molecule gave a concentration for a half-maximal effect (EC50) in assay [2] greater than 10000 nM. The EC50 in assay [3] is greater than 10000 nM. Also, on Autotaxin, inhibition was half-maximal at 238 nM (IC50) and the residual activity was found to be 46%. Besides, in assay [4], the IC50 is 484 nM and the affinity, expressed as Ki, was 241 nM.

With `CCCCCCC/C=C/CCCCCCCC[C@H]1OC[C@@H](COP(=O)(O)O)O1`, the Activity result in assay [1] was “Agonist”. In addition, on Autotaxin, inhibition was half-maximal at 178 nM (IC50) and the residual activity amounted to 25%. In assay [4], 209 nM corresponded to half-maximal inhibition (IC50) and the Ki is 77 nM.

As for `CCCCCCC/C=C/CCCCCCCC[C@H]1OC[C@H](COP(=O)(O)O)O1`, in assay [1], the Activity result was “Agonist”. Besides, in assay [3], a half-maximal effect (EC50) was put at 1170 nM and the Emax was found to be 39%. In addition, at Autotaxin, the IC50 stood at 120 nM and the residual activity is 30%.

As to `C/C=C/C/C=C/C/C=C/CCCCCCCCC1OCC(COP(=O)(O)O)O1` (stereo unspecified), in assay [1], the Activity entry was “Agonist”. In addition, the EC50 was 3600 nM in assay [2], 1710 nM in assay [3] and 7590 nM in assay [4]. Further, the maximum response (Emax) in assay [3] is 51%; in assay [5] it was 29%. For the same molecule, at Autotaxin, it took 803 nM to reach half-maximal inhibition (IC50). For the same molecule, at Autotaxin, the residual activity is 54%.

For `CCCCCCCCc1ccc(CCCCCCC2OCC(COP(O)(O)=S)O2)cc1` (stereo unspecified), the Activity result in assay [1] is “Agonist”. Also, on Autotaxin, the IC50 stood at 449 nM and the residual activity turned out to be 55%. In assay [4], the EC50 was 692 nM. The molecule also yielded an Emax in assay [5] of 87%.

With `CCCCCCC/C=C/CCCCCCCC[C@H]1OC[C@@H](COP(O)(O)=S)O1`, the Activity result in assay [1] is “Agonist”. Also, the figures for the 50% effective concentration (EC50) in assay [2], in assay [3] and in assay [4] were 1560 nM, 1320 nM and 265 nM, respectively. Also, the Emax was found to be 87% in assay [3] and 78% in assay [5]. In addition, on Autotaxin, the half-inhibitory concentration (IC50) turned out to be 403 nM. The residual activity at Autotaxin amounted to 60%.

Consider `CCCCCCCCc1ccc(CCCCCCC2OCC(COP(=O)(O)O)O2)cc1` (stereo unspecified), for which, in assay [1], the Activity entry was “Agonist”. Moreover, in assay [2], the IC50 is 4660 nM and the Ki was determined as 1930 nM. Also, at Autotaxin, the midpoint of inhibition, the IC50, lay at 106 nM and the residual activity was found to be 10%. In assay [4], this molecule came in with an IC50 of 504 nM and a Ki of 171 nM.

Consider `CCCCCCC/C=C/CCCCCCCC[C@@H]1OC[C@@H](COP(O)(O)=S)O1`, for which, in assay [1], the Activity result was “Agonist”. In addition, the EC50 is 2260 nM in assay [2], 1540 nM in assay [3] and 204 nM in assay [4]. Further, the Emax in assay [3] is 72%; in assay [5], 102%. On Autotaxin, the IC50 was 363 nM. Also, at Autotaxin, the residual activity was determined as 64%.

For the molecule `CCCCCCC/C=C/CCCCCCCC[C@@H]1OC[C@H](COP(=O)(O)O)O1`, in assay [1], the Activity entry was “Agonist”. In assay [3], this molecule had an EC50 of 1710 nM and an Emax of 42%. On Autotaxin, this molecule registered an IC50 of 97 nM and a residual activity of 28%. Also, in assay [4], the midpoint of inhibition, the IC50, lay at 136 nM and affinity was put at a Ki of 83 nM.

For the molecule `CCCCCCC/C=C/CCCCCCCC[C@H]1OC[C@H](COP(O)(O)=S)O1`, the Activity entry in assay [1] was “Agonist”. The EC50 in assay [2] was 1580 nM; in assay [3], 1300 nM; in assay [4], 127 nM. Further, the Emax in assay [3] worked out at 77%; in assay [5], 127%. Besides, inhibition against Autotaxin was half-maximal at 252 nM (IC50). This molecule also returned a residual activity at Autotaxin of 74%.

With `CCCCCCCCCCCCC1OCC(COP(=O)(O)O)O1` (stereo unspecified), the Activity entry in assay [1] is “Agonist”. Besides, in assay [2], half-maximal inhibition (IC50) was put at 1110 nM and the affinity, expressed as Ki, was 652 nM. In assay [3], this molecule showed an IC50 of 7430 nM and a Ki of 745 nM. Also, the residual activity at Autotaxin came to 26%.

For the molecule `CCCCCCC/C=C/CCCCCCCCC1OCC(COP(=O)(O)O)O1` (stereo unspecified), in assay [1], the Activity entry was “Agonist”. In assay [2], this molecule yielded an IC50 of 915 nM and a Ki of 497 nM. Besides, in assay [3], the EC50 was greater than 10000 nM. At Autotaxin, this molecule showed an IC50 of 141 nM and a residual activity of 30%.
